{"source": "patent US20160290995A1", "about": "“METHODS OF SELECTING AKT AGONISTS OR ANTAGONISTS” (OREGON HEALTH & SCIENCE UNIVERSITY, priority 2015, published 2016)", "tested_on": "Akt", "experiment": "FOXO1-clover reporter live-cell imaging (relative nuclear intensity) in C3H10T1/2 fibroblasts", "type": "cell-based, mouse", "details": "for mean rate of nuclear import of FOXO1-clover: after R3-IGF-I 250 pM; for effect of inhibitor on IGF-I-mediated reporter localization: 90 min, graded inhibitor concentrations; for pIC50: Mus musculus, C3H 10T1/2", "method": "Cells were imaged every 2-min for 60 min. At the end of the incubation period whole cell lysates were collected.\n10T1/2 cells and C2 myoblasts were incubated in serum-free medium for 90 min. R3-IGF-I was added in supplemented FluoroBrite [0 to 500 pM], and cells were imaged every 2-min for 60 min. […]\nLive cell imaging was performed using an EVOS FL Auto microscope with a stage top incubator that was maintained at 37° C. and 95% humidified air with 5% CO2. Images were collected at 100× magnification at different intervals, using a 10× Fluorite objective (numerical aperture: 0.3), and a GFP light cube (excitation peak, 472/22 nm; emission peak, 510/42 nm). Images were analyzed with the NIH ImageJ plug-in Fiji (NIH, Bethesda, Md.), after using the Polynomial Fit plug-in to subtract background fluorescence, the Stack Reg (rigid registration) plug-in to register images, and the Gaussian Blur plug-in (at 2-pixels) to average fluorescence across pixels. Individual cells were manually tracked using the mTrackJ plug-in (Meijering E et al, Methods Enzymol 504, 183-200 (2012); incorporated by reference herein) by selecting a single point in the nucleus. Cells that died, divided, or migrated out of frame were excluded from analysis. In experiments performed in 6-well dishes, two locations on opposite sides of the well were imaged, while for studies using 24-well plates, one central location was imaged. In each location, at least 25 cells were tracked.", "note": "pIC50: −log10 of the molar value. Where two headings read alike, the source gives them in different places.", "data": [{"smiles": "CCC(=C/[C@H](C)C/C=C/C(C)=C/[C@@H](C)C(=O)[C@@H](C)[C@H](O)[C@@H](C)C/C(C)=C/C(=O)O)/C=C/[C@@H]1OC(=O)C=C[C@@H]1C", "note": "[leptomycin B, reference compound]", "values": [{"measurement": "half-maximal time of nuclear appearance of reporter after leptomycin B", "setting": "leptomycin B 100 nM after 60 min IGF-I 25 pM", "value": "~5", "unit": "min"}, {"measurement": "half-maximal time of nuclear appearance of reporter after leptomycin B", "setting": "leptomycin B 100 nM after 60 min IGF-I 250 pM", "value": "~25", "unit": "min"}, {"measurement": "change of nuclear intensity of the reporter after subsequent leptomycin", "setting": "leptomycin B 100 nM after PI103 in SFM", "value": "nearly a doubling"}, {"measurement": "mean rate of nuclear import of FOXO1-clover", "setting": "leptomycin B 100 nM alone, single exponential fit of individual cells", "value": "~3", "unit": "% per min"}]}, {"smiles": "C[C@]1(O)C[C@@H](c2nc(-c3ccc4ccc(-c5ccccc5)nc4c3)c3c(N)nccn32)C1", "note": "[Linsitinib, reference compound]", "values": [{"measurement": "effect of inhibitor on IGF-I-mediated reporter localization", "setting": "IGF-I 500 pM", "value": "dose-dependent decline in maximal IGF-I-mediated cytoplasmic localization of the FoxO1-clover reporter molecule"}]}, {"smiles": "Oc1cccc(-c2nc(N3CCOCC3)c3oc4ncccc4c3n2)c1", "note": "[PI103, reference compound]", "values": [{"measurement": "fraction of reporter in the nucleus", "setting": "60 min after PI103 500 nM, following 60 min IGF-I 250 pM, scaled 0% = IGF-I, 100% = leptomycin", "value": "~56", "unit": "%"}, {"measurement": "effect of inhibitor on IGF-I-mediated reporter localization", "setting": "IGF-I 500 pM", "value": "dose-dependent decline in maximal IGF-I-mediated cytoplasmic localization of the FoxO1-clover reporter molecule"}, {"measurement": "enhancement of mean rate of nuclear import by inhibition of PI3-kinase", "setting": "Lepto plus PI103 vs Lepto alone", "value": "up to 4 fold"}, {"measurement": "pIC50", "setting": "IGF-I 500 pM, read-out: IC50 for IGF-I-mediated signaling", "value": "6.70 to 7.30"}, {"measurement": "pIC50", "setting": "PDGF-BB 830 pM, read-out: IC50 for PDGF-BB-mediated signaling", "value": "7.30 to 7.70"}, {"measurement": "increase in nuclear localization of the reporter compared with serum-free medium alone", "setting": "PI103 500 nM added to cells in SFM", "value": "~10", "unit": "%"}, {"measurement": "time after addition of PI103 at which N/C=1", "setting": "PI103 500 nM after IGF-I 250 pM", "value": "~15", "unit": "min"}, {"measurement": "mean rate of nuclear import of FOXO1-clover", "setting": "leptomycin B 100 nM plus PI103 500 nM", "value": "> 12", "unit": "% per min"}]}]}
